Data: patent US20260069584A1, “METHODS OF TREATING CHRONIC MYELOID LEUKEMIA USING THE TYROSINE KINASE INHIBITOR VODOBATINIB” (Sun Pharma Advanced Research Company Ltd., priority 2022, published 2026)

Tested on: CP CML
Test: Part B: disease response in CP CML subjects
Format: in vivo, human
Details: for Complete Molecular Response, Best Response / Complete cytogenetic response, Best Response / Cytogenetic response: Minimal response, Best Response / Cytogenetic response: Minor response, Best Response / Cytogenetic response: No response, Best Response / Hematological response: CHR, Best Response / Hematological response: No response, Best Response / Major cytogenetic response, Best Response / Major molecular response, Best Response / Molecular response: No response, Best Response / Partial cytogenetic response, Best Response: number of patients
Source text: This was a Phase I/2, open-label, single-agent, multicenter, multi-dose, dose-escalation study in subjects with Philadelphia chromosome-positive Ph+ CML (CP CML, AP CML and BP CML) and Ph+ ALL. The primary objectives of this study were to determine the maximum tolerated dose (MTD; or recommended Phase 2 dose [RP2D]) of the compound of Formula I when administered orally and to evaluate its safety.
In this study, the dose-escalation cohort started with an accelerated titration study design (ATD) and shifted to a 3±3 design when subjects in the preceding ATD cohort experienced either grade 2 or higher adverse events (AEs) or dose-limiting toxicity (DLT) during Cycle 1 that was not clearly and incontrovertibly related to the underlying disease or concomitant medications. The DLT period consisted of 28 days (Cycle 1). Subjects experiencing DLTs were managed with dose delays and/or discontinuation and continued in the study until disease progression. Decisions to advance to a succeeding dose level occurred after the evaluation of safety and tolerability data for a given dose level.
Accordingly, the eligible subjects were treated in 4-week cycles of once daily self-administration of the compound of Formula I. The administration was after an overnight fast, or after maintaining approximately 2 hours of fasting before and after the dosing in all cycles.
For the cohorts, where the 3±3 design applies, 3 subjects were enrolled initially. If 2 of these subjects experienced a Grade 2 or more toxicity (that was not clearly and incontrovertibly related to the underlying disease or concomitant medications), subsequent cohorts were escalated according to smaller increments. Further, if there were no DLTs in the first 3 subjects, dose escalation to the next higher dose level was allowed to proceed. If 1 of the 3 subjects experienced a DLT, that dose level was expanded to 6 subjects (3 additional subjects were enrolled). If 2 subjects at a given dose level experienced a DLT, the MTD was considered to have been exceeded. The next lower dose level was expanded to 6 subjects, or if 6 subjects had already been enrolled and no more than 1 of the 6 subjects experienced a DLT, then this lower dose level was considered the MTD. Additional subjects were enrolled in dose escalation cohorts for further assessment of safety and efficacy of the compound of Formula 1 at doses that were tolerated (i.e., doses that have <2 DLTs in 6 enrolled subjects or <1 DLT in 3 enrolled subjects). Thus 204 mg was arrived at as MTD. A subject experiencing a DLT was allowed to continue therapy with a reduced dose. Subjects who experienced a DLT and recovered were treated at the next lower dose level until disease progression or other events requiring further dose reduction existed. For cohorts at Dose Level 2 or higher, a further dose reduction (i.e., up to 2 levels lower than their originally assigned dose) was implemented in the case of a further DLT or other non-DLT events requiring a dose reduction, if and when the event leading to dose reduction returned to Grade 1 or lower in severity. The reduced dose was re-escalated to the original or higher dose (i.e., the dose for which safety had been established in the dose escalation cohort) considering subject safety and response to the compound of Formula I. The subject was discontinued from treatment using the compound of Formula I, if dose reduction below 48 mg was required.
The study was conducted over a period of 60 months (5 years) which was divided in 28-days cycle. In the first two cycles, the dose administration was started on day 1 and the subject's assessments were performed on day 1, day 2, day 3, day 8, day 15 and day 22. From Cycle 3 onwards, the assessments were performed every 3 months (i.e., on day 28 of Cycle 3, followed by day 28 of Cycle 6 which was further followed by day 28 of Cycle 9). […]

[1] = 16 CP CML patients with prior ponatinib
[2] = prior ponatinib, 48 mg (N = 1) ESC
[3] = prior ponatinib, 66 mg (N = 2) ESC
[4] = prior ponatinib, 90 mg (N = 2) ESC
[5] = prior ponatinib, 126 mg (N = 1) ESC
[6] = prior ponatinib, 174 mg (N = 5) ESC
[7] = prior ponatinib, 204 mg (N = 3) ESC
[8] = prior ponatinib, 240 mg (N = 2) ESC

## Cc1ccc(C(=O)NNC(=O)c2c(C)cccc2Cl)cc1C#Cc1cnc2ccccc2c1 [compound of Formula I, N′-(2-chloro-6-methylbenzoyl)-4-methyl-3-[2-(3-quinolyl)ethynyl]-benzohydrazide]
204 mg (N = 6) ESC
  Best Hematologic Response: No Response: 0
  Best Molecular Response: Complete Response: 1(16.7)
  Best Molecular Response: Major Response: 3(50.0)
  Best Molecular Response: No Response: 3(50.0)
240 mg (N = 3) ESC
  Best Cytogenetic Response: Complete Response: 3(100)
  Best Cytogenetic Response: Major Cytogenetic Response: 3(100)
  Best Cytogenetic Response: Minimal Response: 0
  Best Cytogenetic Response: Minor Response: 0
  Best Cytogenetic Response: No Response: 0
  Best Cytogenetic Response: Partial Response: 0
  Best Hematologic Response: Complete Response: 2(66.7)
  Best Hematologic Response: Major Hematologic Response: 2(66.7)
  Best Hematologic Response: No Evidence of Leukemia: 0
  Best Hematologic Response: No Response: 0
  Best Molecular Response: Complete Response: 1(33.3)
  Best Molecular Response: Major Response: 3(100)
  Best Molecular Response: No Response: 0
8 patients out of 17, prior ponatinib
  MMR achieved: 47%
11 of 16 CP CML patients with prior ponatinib
  Major Cytogenetic Response (MCyR, both PCyR+ CCyR): 68.8%
[1]
  Achieved MCyR: 6 patients
  Maintained MCyR: 5 patients
ASC (N = 3)
  Complete Molecular Response, Best Response: 0
  Complete cytogenetic response, Best Response: 1
  Cytogenetic response: Minimal response, Best Response: 0
  Cytogenetic response: Minor response, Best Response: 1
  Cytogenetic response: No response, Best Response: 1
  Hematological response: CHR, Best Response: 3
  Hematological response: No response, Best Response: 0
  Major cytogenetic response, Best Response: 1
  Major molecular response, Best Response: 0
  Molecular response: No response, Best Response: 3
  Partial cytogenetic response, Best Response: 0
PON (N = 15)
  Complete Molecular Response, Best Response: 4
  Complete cytogenetic response, Best Response: 7
  Cytogenetic response: Minimal response, Best Response: 1
  Cytogenetic response: Minor response, Best Response: 1
  Cytogenetic response: No response, Best Response: 2
  Hematological response: CHR, Best Response: 12
  Hematological response: No response, Best Response: 3
  Major cytogenetic response, Best Response: 10
  Major molecular response, Best Response: 8
  Molecular response: No response, Best Response: 7
  Partial cytogenetic response, Best Response: 3
Total (N = 30) ESC
  Best Cytogenetic Response: Complete Response: 17(56.7)
  Best Cytogenetic Response: Major Cytogenetic Response: 20(66.7)
  Best Cytogenetic Response: Minimal Response: 4(13.3)
  Best Cytogenetic Response: Minor Response: 1(3.3)
  Best Cytogenetic Response: No Response: 3(10.0)
  Best Cytogenetic Response: Partial Response: 3(10.0)
  Best Hematologic Response: Complete Response: 24(80.0)
  Best Hematologic Response: Major Hematologic Response: 24(80.0)
  Best Hematologic Response: No Evidence of Leukemia: 0
  Best Hematologic Response: No Response: 4(13.3)
  Best Molecular Response: Complete Response: 7(23.3)
  Best Molecular Response: Major Response: 14(46.7)
  Best Molecular Response: No Response: 14(46.7)
More than 3 prior TKIs including ponatinib
  CCyR as best response: 46.7%
More than 3 prior TKIs including ponatinib and asciminib
  CCyR as best response: 33.3%
Ponatinib group
  Major cytogenetic response as best response: 66.7%
Ponatinib plus asciminib group
  Major cytogenetic response as best response: 33.3%
[2]
  Achieved MCyR: 0
  Achieved MMR: 1(100)
  MCyR: 1(100)
  Maintained MCyR: 1(100)
  Maintained MMR: 0
[3]
  Achieved MCyR: 1(50.0)
  Achieved MMR: 0
  MCyR: 1(50.0)
  Maintained MCyR: 0
  Maintained MMR: 0
[4]
  Achieved MCyR: 1(50.0)
  Achieved MMR: 1(50.0)
  MCyR: 1(50.0)
  Maintained MCyR: 0
  Maintained MMR: 0
[5]
  Achieved MCyR: 0
  Achieved MMR: 0
  MCyR: 0
  Maintained MCyR: 0
  Maintained MMR: 0
[6]
  Achieved MCyR: 1(20.0)
  Achieved MMR: 3(60.0)
  MCyR: 3(60.0)
  Maintained MCyR: 2(40.0)
  Maintained MMR: 0
[7]
  Achieved MCyR: 2(66.7)
  Achieved MMR: 1(33.3)
  MCyR: 3(100)
  Maintained MCyR: 1(33.3)
  Maintained MMR: 0
[8]
  Achieved MCyR: 1(50.0)
  Achieved MMR: 2(100)
  MCyR: 2(100)
  Maintained MCyR: 1(50.0)
  Maintained MMR: 0
Prior ponatinib, Total ESC
  Achieved MCyR: 6(37.5)
  Achieved MMR: 8(50.0)
  MCyR: 11(68.8)
  Maintained MCyR: 5(31.3)
  Maintained MMR: 0
